Values joined by “and” are separate entries in the source; they are usually repeats but may differ in a detail not shown here. Equal entries are not always repeated. Where two headings read alike, the source gives them in different places.
Experiments:
[1] = system: MDA‐MB‐231 tumor; assay: PET imaging in MDA-MB-231 breast cancer xenograft model; assay type: in vivo, NSG mice; details: MDA‐MB‐231 model
Description: Given the specificity of [^18F]1 and [^18F]2 and the promising in vivo biodistribution profile of [^18F]1, we established a small‐animal human breast tumor xenograft model in NSG mice subcutaneously implanted with MDA‐MB‐231 cells. […] For blocking studies, PSB‐12651 (15, Figure 6) or unlabeled 1 were used.
FIGURE 6 PET imaging data in an MDA‐MB‐231 tumor mouse model. (A). PET images, CT scans, and merged images of [^18F]2 in the MDA‐MB‐231 tumor mouse model 90 min after tracer injection. White arrows mark the tumor positions. (B). Quantitative PET analysis of [^18F]2 uptake: activity concentration of [^18F]2 in muscle and tumor tissues 90 min after tracer injection (left) and respective tumor‐to‐muscle ratio (right, n = 5 tumors). (C). PET‐CT images of [^18F]1 and [^18F]FDG in the MDA‐MB‐231 tumor mouse model, 260 min ([^18F]1), or 75 min ([^18F]FDG) after injection. […] White arrows mark the positions of tumors. (D). Quantitative PET analysis of [^18F]1 uptake: activity concentration of [^18F]1 and [^18F]FDG in muscle and tumor tissues (left) and tumor‐to‐muscle ratios (right) after 260 min. [^18F]1: n = 18 tumors, [^18F]1 plus unlabeled 1 block: n = 8 tumors, [^18F]1 plus compound 15 block: n = 6 tumors, [^18F]FDG: n = 18 tumors E. Ex vivo analysis of [^18F]1 uptake as measured by gamma counter: activity concentrations of [^18F]1 in muscle and tumor tissues after 260 min without and with blocking (left) and tumor‐to‐muscle ratios (right). [^18F]1: n = 6 tumors, [^18F]1 plus unlabeled 1 block: n = 6 tumors, [^18F]1 plus compound 15 block: n = 5 tumors.^# relative to the respective muscle, *relative to [^18F]1 without blocker, relative to the unblocked tumor; *<0.05; **<0.01, ***<0.001,^#<0.05; ^## <0.01, ^###<0.001, <0.05; <0.01, <0.001, ns: non‐significant, unpaired t‐test.
MDA-MB-231 cells were cultivated in DMEM/GlutaMAX, supplemented with 10 % fetal calf serum, 100 U/mL penicillin, and 100 µg/mL streptomycin and L-glutamine to a final concentration of 8 mmol/L. AsPC-1 cells were cultivated in RPMI, supplemented with 10 % fetal calf serum, 100 U/mL penicillin, and 100 µg/mL streptomycin and L-glutamine to a final concentration of 8 mmol/L. 5 x 10^6 MDA-MB-231 or 1x 10^6 AsPC-1 cells were injected subcutaneously into the shoulder region of 7 to 12 weeks old NSG (NOD.Cg-Prkdc^scid Il2rg^tm1Wjl/SzJ) mice (Charles River Laboratories). Two tumors were inoculated per animal, and growth was followed by digital caliper measurements (volume = ½ (length * width^2)).
Adult C57bl/6 (biodistribution study, 19.8±1.3 g) or tumor-bearing NSG mice (22.2±2.2 g) were anesthetized by isoflurane/O2, and one lateral tail vein was cannulated using a 27 G needle. A respective radiotracer (~ 390 kBq/g body weight) was injected as a bolus via the tail vein, and subsequent PET scanning was performed. A ~1000-fold excess of unlabeled JMS0414 (14 for [^18F]MRS-4648 ([^18F]2)), unlabeled PSB-19427 (1), or PSB-12651 (15) (for [^18F]PSB-19427 ([^18F]1)) was injected into a subgroup of tumor-bearing mice 10 min before radiotracer injection in the blocking studies. PET imaging studies were carried out using a submillimeter high resolution (0.7 mm full width at half-maximum) small animal scanner (32 module quadHIDAC, Oxford Positron Systems Ltd., Oxford, UK) with a uniform spatial resolution (<1 mm) over a large cylindrical field (165 mm diameter, 280 mm axial length). […]

[2] = molecular target: T1, CD73 (cell membrane preparations of MDA-MB-231 cells) (Homo sapiens, UniProt P21589); assay: Kinetic rate index radioligand binding assay, estimation of residence time
T1 construct: endogenous in cells; host or cells: MDA-MB-231 (human triple-negative breast cancer) membrane preparation
T1 sequence (P21589 27-574): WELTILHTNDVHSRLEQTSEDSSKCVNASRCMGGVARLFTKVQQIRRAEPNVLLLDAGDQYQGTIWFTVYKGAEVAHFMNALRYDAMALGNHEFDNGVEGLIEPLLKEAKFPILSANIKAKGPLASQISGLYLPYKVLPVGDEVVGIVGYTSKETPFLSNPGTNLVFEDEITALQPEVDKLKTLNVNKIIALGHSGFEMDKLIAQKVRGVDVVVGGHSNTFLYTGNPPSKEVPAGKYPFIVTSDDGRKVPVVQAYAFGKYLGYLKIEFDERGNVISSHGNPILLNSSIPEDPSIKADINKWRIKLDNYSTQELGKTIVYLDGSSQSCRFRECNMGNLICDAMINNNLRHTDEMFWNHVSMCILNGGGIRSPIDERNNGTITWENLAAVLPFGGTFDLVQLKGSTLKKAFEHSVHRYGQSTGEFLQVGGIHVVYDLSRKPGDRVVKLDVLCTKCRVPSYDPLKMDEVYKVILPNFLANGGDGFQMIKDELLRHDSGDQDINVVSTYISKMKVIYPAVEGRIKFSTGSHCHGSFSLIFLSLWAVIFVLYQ
Text: Besides affinity, binding kinetics play a crucial role in determining in vivo tracer performance. The clinical CD73 inhibitor Quemliclustat has been reported to display a very long residence time. We therefore determined the kinetic rate index (KRI) of selected CD73 inhibitors using a radioligand binding assay. […] These comparatively long residence times indicate slow dissociation from the target, which may contribute to the sustained tumor retention of [^18F]1 observed in vivo. Another effect that might play a role is pharmacological inhibition of CD73 by the high concentration of the CD73 inhibitor used for blocking. This will lead to a strong reduction in adenosine concentrations, for example, in blood vessels and other tissues, which may change hemodynamics and drug distribution. […]
Cell membrane preparations of MDA-MB-231 cells were performed as previously described.^[9^] A dual point competition assay (at 20 min and 90 min) using [^3H]PSB-17230 was employed for the determination of kinetic rate index (KRI) in analogy to a published procedure,^[60^] determined at 25°C. The residence times were calculated by linear correlation based on a large database of previously determined KRI values and residence times of analogs.

[3] = molecular target: T2, CD73 in human breast cancer samples (Homo sapiens, UniProt P21589); assay: Autoradiography on human breast tumor and sentinel lymph node cryosections; assay type: binding; details: ∼1000‐fold excess of blocker with radiotracer
T2 construct: cryosections of breast tumor samples as well as sentinel lymph node samples were investigated; from tissue; host or cells: primary breast tumors and sentinel lymph nodes of two patients, 6 µm cryosections
T2 sequence (P21589 27-574): T1 sequence (P21589 27-574)
Description: To test specific radiotracer binding to its target, we performed in situ autoradiography. [^18F]2 was applied onto cryosections of neighboring slides of tumor tissues from primary breast tumors from patient X (Figure 4A) and patient Y (Figure 4B), used for immunohistochemistry and AMPase activity determination. Sentinel LN from patient Y was incubated with [^18F]1 (Figure 4C).
FIGURE 4 Autoradiographic imaging of ^18F‐labeled CD73 tracer binding to tissue samples of breast tumors and sentinel lymph nodes. Primary breast tumor (A, B) and LN cryosections (C) were incubated with [^18F]2 or [^18F]1 in the absence (control) and in the presence of an unlabeled CD73 inhibitor, AMPCP (13) or JMS04‐14 (14), as indicated. The samples were processed for autoradiographic analysis, as described in the materials and methods section. The white dotted lines outline the tissue boundaries. (D). Structures of CD73 inhibitors applied as blockers in this study.
For the assessment of ^18F-labeled CD73 tracer binding to human tissues, cryosections of breast tumor samples as well as sentinel lymph node samples were investigated. Cryosections were thawed and pre-incubated for 15 min at room temperature in 2-[4-(2-hydroxyethyl)piperazin-1-yl]ethanesulfonic acid buffer (HEPES). […] Blocking compounds were prepared according to the molar activity of the radiolabeled tracers [^18F]MRS-4648 and [^18F]PSB-19427 aiming at a 1000-fold excess of the blocking agent. For each tissue sample, neighboring sections were incubated for 20 min at room temperature with a mixture of 50µL of the radiotracer and 50µL of the classical CD73 inhibitor AMPCP (25 nmol, in PBS), or JMS0414 (61 nmol, in HEPES), or HEPES buffer respectively. After incubation, slides were washed three times with PBS and Aqua bidest, mounted on a slide holder for the image acquisition, and covered with protection and scintillation foils. Digital autoradiography measurement of each slide was performed for 60 minutes (Micro Imager, Biospace, France). Acquired data were corrected for radioactive decay in reference to the start of the acquisition as well as the start of the incubation.

In the case of `O=P(O)(O)CP(=O)(O)OC[C@H]1O[C@@H](n2cnc3c(NCc4ccccc4)nc(Cl)nc32)[C@H](O)[C@@H]1O` [PSB-12651, reference compound], the “Effect of blocker pre-treatment on tumor-to-muscle ratio of [18F]1” value ([1]; ~1000-fold excess injected 10 min before tracer) is reported as “markedly reduced” and the residence time ([2]; estimated from kinetic rate index, [3H]PSB-17230, 25 °C, read-out: Residence time) is reported as 31 min.

For `Nc1ncnc2c1ncn2[C@@H]1O[C@H](COP(=O)(O)CP(=O)(O)O)[C@@H](O)[C@H]1O` [AMPCP, reference compound], the “Effect of co-incubated blocker on tissue-associated radioactivity” value [3] was “markedly reduced” and the residence time [2] was 8.8 min.

With `Cn1c(=O)n([C@@H]2O[C@H](COP(=O)(O)CP(=O)(O)O)[C@@H](O)[C@H]2O)cc/c1=N/OCc1ccccc1` [JMS04-14, reference compound] the “Effect of co-incubated blocker on tissue-associated radioactivity” value [3] was “markedly reduced”.

In the case of `O=C[C@H]([18F])[C@@H](O)[C@H](O)[C@H](O)CO` [[^18F]FDG, 2‐deoxy‐2‐[^18F]fluoro‐D‐glucose, reference compound], the Tumor-to-muscle ratio ([1]; [18F]FDG PET, 75 min after injection) is reported as 2.04 ± 1.0 and 2.04.

Source: publication PMC13077603, “Fluorine‐18‐Labeled Nucleotide Analogs Targeting Ecto‐5'‐Nucleotidase (CD73) for Positron Emission Tomography Imaging of Solid Tumors” (Angewandte Chemie (International Ed. in English), 2026)
